# From patent US9586963B2 (GENFIT, priority 2011, dated 2017)
# How the values were obtained:
# Rev-Erb alpha [1] = target: T1, Rev-Erb alpha (Homo sapiens, UniProt P20393); test: M2H (mammalian two-hybrid) cellular activation assay of Rev-Erb alpha; format: cell-based; settings: M2H assay, HEK293 cells, Gal4-Rev-Erb alpha / VP16-NCoR, luciferase reporter
# T1 sequence (P20393 284-614 limits assumed): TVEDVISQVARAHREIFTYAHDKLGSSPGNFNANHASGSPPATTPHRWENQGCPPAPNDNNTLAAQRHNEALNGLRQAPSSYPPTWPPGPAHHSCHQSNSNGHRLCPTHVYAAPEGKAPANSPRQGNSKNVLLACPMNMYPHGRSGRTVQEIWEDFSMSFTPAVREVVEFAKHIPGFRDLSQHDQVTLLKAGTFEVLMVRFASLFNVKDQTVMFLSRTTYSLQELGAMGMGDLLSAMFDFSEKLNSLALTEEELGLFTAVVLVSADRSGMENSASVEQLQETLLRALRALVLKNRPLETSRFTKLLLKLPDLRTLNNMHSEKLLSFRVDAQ
# Outline: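 Six-point dose-response, 18 h, 37 °C, serum-free, in HEK293 cells carrying a Gal4-RE luciferase reporter with Gal4-Rev-Erb alpha or beta plus VP16-NCoR (corepressor interaction readout). EC50 and TOP activation (%) derived from luminescence across four experiments.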
# db/db mice [2] = test: In vivo evaluation in db/db mice: glycemia, HbA1c, plasma triglycerides; settings: once daily by gavage, 28 days
# Experimental: 7-weeks-old male db/db mice were purchased from Charles River (France). Mice were 9-weeks-old at the beginning of the study. All mice were housed 2 per cage under controlled conditions of humidity, lighting and temperature. They had free access to food (R03, SAFE) and water.
# Mice were randomized according to their body weight, and the non-fasting glycaemia, and assigned to 3 different groups: • Group 1: Control_Vehicle n=8 • Group 2: Cpd-4-39 25 mg/kg n=8 • Group 3: Cpd-4-39 100 mg/kg n=8 Treatments and Sample Analysis
# The treatments were administered once daily, by gavage (10 mL/kg) for 28 consecutive days (unless otherwise mentioned). For oral administrations, compound was suspended in CMC 1%+Tween 80 0.1%.
# Non fasting blood glucose level was determined from tail vein blood using a glucometer (Smart Chek, Kitvia), Blood samples were withdrawn under anesthesia by retro-orbital puncture at the end of the treatment period. Tubes containing blood were rapidly centrifuged after collection (15 minutes at 4,000 rpm/4° C.) and the plasma fraction was collected. Plasma aliquots were stored at −20° C. for further analyses.
# The blood concentration of glycosylated hemoglobin A1c was determined using the Randox kit for Daytona automate (Randox, cat# HA 3830) according to the manufacturer's recommendations. Total hemoglobin and HbA1c concentrations were measured and the HbA1c result was expressed as a percentage of the total hemoglobin concentration.
# The triglyceride content of plasma was measured using the Randox kit for Daytona automate (Randox, cat# TR 3823) according to the manufacturer's recommendations. In this protocol, the triglycerides are hydrolyzed by a lipase. The resulting glycerol concentration is then measured by an enzymatic method and spectrophotometric measurement. Results are expressed in mg/dL. • Oral Glucose Tolerance Test
# At the end of the treatment period, animals were anesthetized with isoflurane and then sacrificed by cervical dislocation. Liver, quadriceps muscle and epididymal adipose tissues were collected. […]
# Bmal1 [3] = test: Gene expression of Rev-Erb alpha target gene Bmal1 in tissues of treated db/db mice; format: in vivo; settings: 25 and 100 mpk, adipose tissue, muscle, liver
# Source text: At the end of the treatment period, animals were anesthetized with isoflurane and then sacrificed by cervical dislocation. Liver, quadriceps muscle and epididymal adipose tissues were collected. The Student's t-test was used to test for statistical differences between drug and vehicle treatments when a single dose of drug was used while ANOVA followed by Dunnett's Multiple Comparison post hoc test was used for dose responses.
# Gene expression studies have been performed on mRNA isolated from different metabolic tissues such as liver, adipose tissue and skeletal muscle. […] is considered as a target gene of Rev-Erba. Activation of Rev-Erba activity should then translate in a reduction of […] gene expression.
# db/db mice [4] = test: Oral glucose tolerance test in db/db mice; format: in vivo; settings: 50 mpk
# Experimental: Oral glucose tolerance test (OGTT) was performed as followed, at day 35 of treatment, after a 16-hour fasting period, an oral glucose load was administered at T=0 (2 g/kg of glucose, 10 mL/kg) and glycemia was measured at the tail vein at T=15, 30, 60, 90, 120 & 180 minutes.
# Oral glucose tolerance test is a widely used assay perform to assess the body's tolerance to an orally glucose bolus, it is considered as a good marker of insulin resistance and diabetes. […] Improvement of the body's insulin sensitivity is illustrated on FIG. 3(b).
# Rev-Erb alpha [5] = target: T2, Rev-Erb alpha (Homo sapiens, UniProt P20393); settings: FRET assay; Meng Q J et al., 2008; cited from earlier work
# T2 sequence (P20393 1-614): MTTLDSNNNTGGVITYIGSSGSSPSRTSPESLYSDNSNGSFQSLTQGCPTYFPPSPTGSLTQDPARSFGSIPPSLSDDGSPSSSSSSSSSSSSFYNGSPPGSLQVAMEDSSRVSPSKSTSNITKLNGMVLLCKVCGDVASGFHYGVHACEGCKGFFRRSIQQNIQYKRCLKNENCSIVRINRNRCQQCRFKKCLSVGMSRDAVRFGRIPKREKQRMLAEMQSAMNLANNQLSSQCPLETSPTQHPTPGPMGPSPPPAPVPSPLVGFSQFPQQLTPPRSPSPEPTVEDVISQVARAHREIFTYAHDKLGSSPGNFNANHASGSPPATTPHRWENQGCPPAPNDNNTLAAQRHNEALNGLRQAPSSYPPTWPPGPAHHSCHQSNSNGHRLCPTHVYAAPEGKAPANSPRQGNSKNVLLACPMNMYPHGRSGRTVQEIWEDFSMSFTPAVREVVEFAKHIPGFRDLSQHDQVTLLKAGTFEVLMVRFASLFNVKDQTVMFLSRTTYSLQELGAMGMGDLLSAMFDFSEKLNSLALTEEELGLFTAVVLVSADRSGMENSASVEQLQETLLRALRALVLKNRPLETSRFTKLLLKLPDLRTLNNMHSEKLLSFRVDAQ
# Bmal1 [6] = settings: cell culture, dose-dependent; cited from earlier work
# 3T3-L1 cells = settings: lipid accumulation and adipogenic genes; cited from earlier work
# [7] = high clearance and rapid metabolism; cited from earlier work
# Rev-Erb alpha [8] = target: T2, Rev-Erb alpha; settings: Moore J T et al., 2006; cited from earlier work
smiles,measurement,setting,value
FC(F)(F)c1ccc(-c2cccnc2)c(Oc2ccc3nnc(Cl)n3n2)c1,EC50,Rev-Erb alpha [1],100 to 1000 nM
same,Circulating triglycerides,db/db mice [2]; 25 and 100 mpk,reduced
same,HbA1c,db/db mice [2]; 25 and 100 mpk,significantly reduced
same,glycemia,"db/db mice [2]; 100 mpk, compared to control mice",significantly reduced
same,"Small expression in the studied organs (Bmal1 gene expression, FIGS. 13)",Bmal1 [3],significant inhibition
same,"area under the curve, glucose tolerance",db/db mice [4]; OGTT,Cpd-4-39 dependent effect on glucose tolerance
same,evolution of blood glucose in oral glucose tolerance test,"db/db mice [4]; day 35, 16-hour fasting, 2 g/kg glucose",improved evolution of their blood glucose
CC(C)(C)OC(=O)CN(Cc1ccc(Cl)cc1)Cc1ccc([N+](=O)[O-])s1 [GSK4112],interaction of NCoR-derived peptide with Rev-Erb alpha,Rev-Erb alpha [5],dose-dependently increasing the interaction
same,Bmal1 expression,Bmal1 [6],decreases Bmal1 expression
same,adipogenesis,3T3-L1 cells,induces adipogenesis
same,pharmacokinetic properties,[7],poor pharmacokinetic properties
C=CC1=C(C)c2cc3[n-]c(cc4[n-]c(cc5nc(cc1n2)C(C)=C5C=C)c(C)c4CCC(=O)O)c(CCC(=O)O)c3C.[Fe+2] [Heme],Kd,Rev-Erb alpha [8],2000 to 3000 nM
